Measured values as given in patent US10640534B2 (Agios Pharmaceuticals, Inc., priority 2012, dated 2020).
pIC50: −log10 of the molar value.

Experiments:
U87MG cells = test: Cellular assay, inhibition of 2-HG production in U87MG cells; type: cell-based
How it was run: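 HT1080 or U87MG cells (U87MG kept with 500 ug/mL G418) seeded at 5000 cells/well and treated with compound at 0.2% final DMSO. Incubated 48 h at 37 °C. 2-HG inhibition determined by LC-MS. Viability read by CellTiter-Glo luminescence at 72 h post-dose.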

HT1080 cells = test: Cellular assay, inhibition of 2-HG production in HT1080 cells; type: cell-based
Experimental: Cells (HT1080 or U87MG) are grown in T125 flasks in DMEM containing 10% FBS, 1× penicillin/streptomycin and 500 ug/mL G418 (present in U87MG cells only). They are harvested by trypsin and seeded into 96 well white bottom plates at a density of 5000 cell/well in 100 ul/well in DMEM with 10% FBS. […] Cells are incubated overnight at 37° C. in 5% CO2. The next day test compounds are made up at 2× the final concentration and 100 ul are added to each cell well. The final concentration of DMSO is 0.2% and the DMSO control wells are plated in row G. The plates are then placed in the incubator for 48 hours. […] The cell plate is placed back in the incubator for another 24 hours. At 72 hours post compound addition, 10 mL/plate of Promega Cell Titer Glo reagent is thawed and mixed. The cell plate is removed from the incubator and allowed to equilibrate to room temperature. Then 100 ul of Promega Cell Titer Glo reagent is added to each well of media. The cell plate is then placed on an orbital shaker for 10 minutes and then allowed to sit at room temperature for 20 minutes. The plate is then read for luminescence with an integration time of 500 ms.

IDH1 R132C = IDH1 R132C (Homo sapiens (Human), UniProt O75874, R132C); test: In vitro NADPH depletion assay for IDH1m R132C inhibitors; type: biochemical; conditions: enzyme, read-out: IDH R132C IC50
Experimental: A test compound is prepared as 10 mM stock in DMSO and diluted to 50× final concentration in DMSO, for a 50 μl reaction mixture. IDH enzyme activity converting alpha-ketoglutarate to 2-hydroxyglutaric acid is measured using a NADPH depletion assay. In the assay the remaining cofactor is measured at the end of the reaction with the addition of a catalytic excess of diaphorase and resazurin, to generate a fluorescent signal in proportion to the amount of NADPH remaining. […] The reaction is started with the addition of 10 μl of Substrate Mix ([…], 5 mM alpha-ketoglutarate, in Assay Buffer) and the mixture is incubated for 90 minutes at room temperature.
The concentration of NADPH and alpha-ketoglutarate in the Substrate Buffer is 20 μM and 1 mM, respectively.

[1] = inhibition of 2-HG production, U87MG cells, 48 hours
[2] = inhibition of 2-HG production, HT1080 cells, 48 hours

Chain of IDH1 R132C (O75874 whole entry R132C): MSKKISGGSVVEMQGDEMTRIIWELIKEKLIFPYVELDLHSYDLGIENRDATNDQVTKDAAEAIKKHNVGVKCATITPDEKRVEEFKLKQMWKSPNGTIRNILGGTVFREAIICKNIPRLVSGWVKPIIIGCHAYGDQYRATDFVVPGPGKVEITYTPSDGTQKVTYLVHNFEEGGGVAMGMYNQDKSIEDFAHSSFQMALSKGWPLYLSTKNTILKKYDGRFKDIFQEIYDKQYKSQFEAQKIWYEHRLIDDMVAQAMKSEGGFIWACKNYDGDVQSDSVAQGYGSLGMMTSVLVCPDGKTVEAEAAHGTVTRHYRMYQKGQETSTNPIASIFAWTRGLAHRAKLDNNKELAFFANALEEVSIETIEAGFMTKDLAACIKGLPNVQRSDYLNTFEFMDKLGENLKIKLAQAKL

| Molecule | pIC50 (U87MG cells; Homo sapiens, U-87 MG, 48 h) | pIC50 (HT1080 cells; Homo sapiens, HT-1080, 48 h) | pIC50 (U87MG cells; [1]) | pIC50 (HT1080 cells; [2]) | pIC50 (IDH1 R132C) |
| --- | --- | --- | --- | --- | --- |
| N#Cc1ccnc(N2C(=O)CC[C@H]2C(=O)N(c2cccc(-c3cn[nH]c3)c2)[C@H](C(=O)NC2CC(F)(F)C2)c2ccccc2Cl)c1 (single isomer, unassigned) [Compound 200] | > 7.00 | > 7.00 |  |  |  |
| (2S)—N-(1-(2-Chlorophenyl)-2-((3,3-difluorocyclobutyl)amino)-2-oxoethyl)-1-(4-cyanopyridin-2-yl)-N-(3-fluoro-5-(methylsulfonyl)phenyl)-5-oxopyrrolidine-2-carboxamide [Compound 110] |  |  | > 7.00 | > 7.00 |  |
| O=C(NC1CC(F)(F)C1)[C@H](c1ccccc1Cl)N(C(=O)[C@@H]1CCC(=O)N1c1cc(C(F)(F)F)ccn1)c1cccc(F)c1 [Compound 40] | 6.30 to 7.00 | 6.30 to 7.00 |  |  |  |
| O=C(NC1CC(F)(F)C1)[C@H](c1ccccc1Cl)N(C(=O)[C@@H]1CCC(=O)N1c1nccc2ccccc12)c1cccc(F)c1 [Compound 16] | 6.00 to 6.30 | 6.30 to 7.00 |  |  |  |
| O=C(NC1CC(F)(F)C1)[C@H](c1ccccc1Cl)N(C(=O)[C@@H]1COCC(=O)N1c1ncccn1)c1cccc(F)c1 [Compound 45] | 6.30 to 7.00 | 6.30 to 7.00 |  |  |  |
| CC(C)(C)c1cccc(N(C(=O)[C@@H]2CCC(=O)N2c2nccc(C#N)n2)[C@H](C(=O)NC2CC(F)(F)C2)c2ccccc2Cl)c1 [Compound 165, (S)—N-(3-(tert-Butyl)phenyl)-N—((S)-1-(2-chlorophenyl)-2-((3,3-difluorocyclobutyl)amino)-2-oxoethyl)-1-(4-cyanopyrimidin-2-yl)-5-oxopyrrolidine-2-carboxamide] | > 7.00 | > 7.00 |  |  |  |
| (S)-1-(4-Cyanopyridin-2-yl)-N—((S)-2-(3,3-difluorocyclobutylamino)-1-(2-fluorophenyl)-2-oxoethyl)-N-(3,5-difluorophenyl)-5-oxopyrrolidine-2-carboxamide [Compound 208] |  |  | > 7.00 | > 7.00 |  |
| O=C(NC1CCC(F)(F)C1)C(c1ccccc1Cl)N(C(=O)[C@@H]1CCC(=O)N1c1ncccn1)c1cccc(F)c1 (mixture of isomers) [Compound 73, (2S)—N-(1-(2-Chlorophenyl)-2-((3,3-difluorocyclopentyl)amino)-2-oxoethyl)-N-(3-fluorophenyl)-5-oxo-1-(pyrimidin-2-yl)pyrrolidine-2-carboxamide] | > 7.00 | > 7.00 |  |  |  |
| N#Cc1cccc(N(C(=O)[C@@H]2CCC(=O)N2c2nccc(C#N)n2)[C@H](C(=O)NC2CCC(F)(F)CC2)c2ccccc2Cl)c1 [Compound 178, (S)—N—((S)-1-(2-Chlorophenyl)-2-((4,4-difluorocyclohexyl)amino)-2-oxoethyl)-N-(3-cyanophenyl)-1-(4-cyanopyrimidin-2-yl)-5-oxopyrrolidine-2-carboxamide] | > 7.00 | 6.30 to 7.00 |  |  |  |
| (S)-tert-butyl 3-(((S)-1-(2-chlorophenyl)-2-((3,3-difluorocyclobutyl)amino)-2-oxoethyl)(3,5-difluorophenyl)carbamoyl)-5-oxopiperazine-1-carboxylate [Compound 97] |  |  | > 7.00 | > 7.00 |  |
| N#Cc1cncc(N(C(=O)[C@@H]2CCC(=O)N2c2cc(C#N)ccn2)[C@H](C(=O)NC2CC(F)(F)C2)c2ccccc2)c1 [Compound 212] | > 7.00 | > 7.00 |  |  |  |
| O=C(NC1CC(F)(F)C1)[C@H](c1ccccc1Cl)N(C(=O)[C@@H]1CCC(=O)N1c1ccncn1)c1cccc(F)c1 [Compound 22] |  |  |  |  | 6.30 to 7.00 |
| O=C(NC1CC(F)(F)C1)[C@H](c1ccccc1Cl)N(C(=O)[C@@H]1CCC(=O)N1c1ccc(Cl)cn1)c1cccc(F)c1 [Compound 48] | 6.30 to 7.00 | 6.30 to 7.00 |  |  |  |
| COc1cccnc1N1C(=O)CC[C@H]1C(=O)N(c1cccc(F)c1)[C@H](C(=O)NC1CC(F)(F)C1)c1ccccc1Cl [Compound 17] | 5.70 to 6.00 | 6.00 to 6.30 |  |  |  |
| CS(=O)(=O)c1cccc(N(C(=O)[C@@H]2CCC(=O)N2c2nccc(C#N)n2)C(C(=O)NC2CC(F)(F)C2)c2ccccc2Cl)c1 (mixture of isomers) [Compound 102, (2S)—N-(1-(2-Chlorophenyl)-2-((3,3-difluorocyclobutyl)amino)-2-oxoethyl)-1-(4-cyanopyrimidin-2-yl)-N-(3-(methylsulfonyl)phenyl)-5-oxopyrrolidine-2-carboxamide] | 6.30 to 7.00 | > 7.00 |  |  |  |
| Cc1cccnc1N1C(=O)CC[C@H]1C(=O)N(c1cccc(F)c1)[C@H](C(=O)NC1CC(F)(F)C1)c1ccccc1Cl [Compound 15] | 6.30 to 7.00 | 6.30 to 7.00 |  |  |  |
| N#Cc1ccnc(N2C(=O)CC[C@H]2C(=O)N(c2cccc(OC3CC3)c2)C(C(=O)NC2CC(F)(F)C2)c2ccccc2Cl)n1 (stereo partly drawn) [Compound 192, (2S)—N-(1-(2-Chlorophenyl)-2-((3,3-difluorocyclobutyl)amino)-2-oxoethyl)-1-(4-cyanopyrimidin-2-yl)-N-(3-cyclopropoxyphenyl)-5-oxopyrrolidine-2-carboxamide] | > 7.00 | > 7.00 |  |  |  |
| N#Cc1ccnc(N2C(=O)CC[C@H]2C(=O)N(c2cccc(F)c2)[C@H](C(=O)NC2CC(F)(F)C2)c2c(Cl)cccc2Cl)c1 (single isomer, unassigned) [Compound 63] | > 7.00 | > 7.00 |  |  |  |
